Results as given in ChEMBL document CHEMBL3272178, “Prepartion of 16alpha-alkoxy and 16alpha-acyloxy derivatives of 21-chloro-17-acyloxy corticosteroids and determination of their vasoconstrictor activities in humans” (J Med Chem, 1976).
Activity calls are given as the source filed them. The rule behind the calls is not given here.

How the values were obtained:
Homo sapiens [1] = species on record: Homo sapiens; assay: Vasoconstrictor activity in human relative to betamethasone valerate; assay type: functional, organism-based
Homo sapiens [2] = species on record: Homo sapiens; assay: Skin stripping in human by stripped-skin assay relative to betamethasone valerate; assay type: functional, organism-based

CCCCC(=O)O[C@]1(C(=O)CCl)[C@H](OC)C[C@H]2[C@@H]3CCC4=CC(=O)CC[C@]4(C)[C@@]3(F)[C@@H](O)C[C@@]21C
Activity (Homo sapiens [1]): inactive | Activity (Homo sapiens [2]): inactive

CC(=O)O[C@@H]1C[C@H]2[C@@H]3CCC4=CC(=O)C=C[C@]4(C)[C@@]3(F)[C@@H](O)C[C@]2(C)[C@@]1(OC(C)=O)C(=O)CCl
Activity (Homo sapiens [1]): inactive | Activity (Homo sapiens [2]): inactive

CO[C@@H]1C[C@H]2[C@@H]3CCC4=CC(=O)CC[C@]4(C)[C@@]3(F)[C@@H](O)C[C@]2(C)[C@@]1(OC(C)=O)C(=O)CCl
Activity (Homo sapiens [1]): inactive | Activity (Homo sapiens [2]): inactive

CCC(=O)O[C@]1(C(=O)CCl)[C@H](OC(C)=O)C[C@H]2[C@@H]3CCC4=CC(=O)C=C[C@]4(C)[C@@]3(F)[C@@H](O)C[C@@]21C
Activity (Homo sapiens [1]): inactive | Activity (Homo sapiens [2]): inactive

CCO[C@@H]1C[C@H]2[C@@H]3CCC4=CC(=O)CC[C@]4(C)[C@@]3(F)[C@@H](O)C[C@]2(C)[C@@]1(OC(C)=O)C(=O)CCl
Activity (Homo sapiens [1]): inactive | Activity (Homo sapiens [2]): inactive
